Data on 56 compounds can be found in patent US20130324530A1 (Novartis AG, priority 2010, published 2013).

SMILES strings stand for the structures. Bounds are passed on as bounds.

For this assay, the target named is Cdk9/cyclinT1 (Homo sapiens, UniProt P50750). Nature of the assay: Cdk9/CyclinT1 IMAP assay.
Chain of Cdk9/cyclinT1 (P50750 whole entry): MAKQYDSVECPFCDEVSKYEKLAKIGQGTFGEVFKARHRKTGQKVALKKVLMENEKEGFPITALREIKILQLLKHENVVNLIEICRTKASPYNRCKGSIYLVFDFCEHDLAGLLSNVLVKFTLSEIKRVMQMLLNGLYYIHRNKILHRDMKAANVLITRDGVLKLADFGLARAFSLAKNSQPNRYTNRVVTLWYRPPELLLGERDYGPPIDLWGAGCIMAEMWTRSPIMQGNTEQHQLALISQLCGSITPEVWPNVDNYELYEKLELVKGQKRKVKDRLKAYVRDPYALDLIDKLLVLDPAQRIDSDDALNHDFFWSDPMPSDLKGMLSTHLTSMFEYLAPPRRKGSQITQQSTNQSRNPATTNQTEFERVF
Chain of Cdk9/cyclinT1 (O60563 whole entry partner): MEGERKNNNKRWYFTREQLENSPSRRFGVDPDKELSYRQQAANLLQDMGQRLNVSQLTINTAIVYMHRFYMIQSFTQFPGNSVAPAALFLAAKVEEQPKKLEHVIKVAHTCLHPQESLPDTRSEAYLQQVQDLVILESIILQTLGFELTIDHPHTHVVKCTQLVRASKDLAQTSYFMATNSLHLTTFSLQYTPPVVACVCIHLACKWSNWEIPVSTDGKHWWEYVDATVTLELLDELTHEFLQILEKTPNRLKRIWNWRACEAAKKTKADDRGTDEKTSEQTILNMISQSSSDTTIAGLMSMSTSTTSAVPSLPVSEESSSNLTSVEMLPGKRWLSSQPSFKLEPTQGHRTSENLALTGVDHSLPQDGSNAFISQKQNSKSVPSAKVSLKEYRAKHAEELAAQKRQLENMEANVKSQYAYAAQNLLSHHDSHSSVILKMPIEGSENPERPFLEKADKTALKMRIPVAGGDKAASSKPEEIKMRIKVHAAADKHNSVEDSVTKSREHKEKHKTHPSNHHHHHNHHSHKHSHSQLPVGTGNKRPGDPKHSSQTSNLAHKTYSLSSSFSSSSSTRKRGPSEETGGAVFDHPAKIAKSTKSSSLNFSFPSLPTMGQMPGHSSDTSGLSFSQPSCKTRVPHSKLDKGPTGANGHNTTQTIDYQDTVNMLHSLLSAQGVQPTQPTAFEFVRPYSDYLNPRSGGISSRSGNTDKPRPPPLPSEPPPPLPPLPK

Description: The final total protein concentration in the assay is 4 nM. […] The final concentration of peptide substrate is 100 nM. […] The final concentration of ATP substrate is 6 uM. IMAP (Immobilized Metal Assay for Phosphochemicals) Progressive Binding reagent is purchased from Molecular Devices, cat#R8139. Fluorescence polarization (FP) is used for detection. The 5TAMRA-cdk7tide peptide is phosphorylated by Cdk9/cyclinT1 kinase using the ATP substrate. The Phospho-5TAMRA-cdk7tide peptide substrate is bound to the IMAP Progressive Binding Reagent. […] IMAP Progressive Binding Reagent is diluted 1:800 in 100% 1× Solution A from Molecular Devices, cat#R7285.
General protocol is as follows: To 10 ul of cdk9/cyclinT1, 0.5 ul of test compound in dimethyl sulfoxide is added. [sequence]-cdk7tide and ATP are mixed. 10 ul of the 5TAMRA-cdk7tide/ATP mix is added to start the reaction. The reaction is allowed to proceed for 4.5 hrs. 60 uL of IMAP Progressive Binding Reagent is added.

For orientation: IC50 means the point on the concentration scale where inhibition reaches its midpoint. A high value points to a need for much substance. For the compound `O[C@H](CN[C@H]1CC[C@H](Nc2cc(-c3cc(NCC4CCOCC4)cnc3Cl)c(Cl)cn2)CC1)C(F)(F)F` [Compound 74, (R)-3-(trans-4-(2,5′-dichloro-5-((tetrahydro-2H-pyran-4-yl)methyl)amino-3,4′-bipyridin-2′-ylamino)cyclohexylamino)-1,1,1-trifluoropropan-2-ol], the IC50 was found to be 1 nM. The same measure for `O[C@H]1CCCC[C@@H]1N[C@H]1CC[C@H](Nc2cc(-c3cnc(F)c(NCC4CCOCC4)c3)c(Cl)cn2)CC1` [Compound 92]: 1.8 nM; for `NC[C@H]1CC[C@H](Nc2cc(-c3cnc(Cl)c(NCC4CCOCC4)c3)c(Cl)cn2)CC1` [Compound 83]: less than 8 nM. The same measure for `N[C@H]1CC[C@H](Nc2cc(-c3cncc(NCc4cccc(F)c4)c3)ccn2)CC1` [Compound 44, N2′-(trans-4-aminocyclohexyl)-N5-(3-fluorobenzyl)-3,4′-bipyridine-2′,5-diamine]: less than 8 nM. `Cc1cccc(CNc2cncc(-c3cc(N[C@H]4CC[C@H](N)CC4)ncc3Cl)c2)c1` [Compound 34]: the half-maximal inhibitory concentration (IC50) was less than 8 nM.

For `N[C@H]1CC[C@H](Nc2cc(-c3cncc(NCc4cccc(Cl)c4)c3)c(Cl)cn2)CC1` [Compound 42], the concentration for half-maximal inhibition (IC50) is less than 8 nM.

Consider `Clc1cnc(N[C@H]2CC[C@H](N3CCCC3)CC2)cc1-c1cnc(Cl)c(NCC2CCOCC2)c1` [Compound 81], for which the 50% inhibitory concentration (IC50) was found to be 45 nM. The value for `OCCCNc1cc(-c2cncc(NCc3cccc(F)c3)c2)c(Cl)cn1` [Compound 40] was less than 8 nM. In turn, `OCCNc1cc(-c2cnc(N3CCOCC3)c(NCc3cccc(F)c3)c2)c(Cl)cn1` [Compound 37] showed a 50% inhibitory concentration (IC50) of 6920 nM. Consider `NCCCNc1cc(-c2cncc(NCc3cccc(F)c3)c2)c(Cl)cn1` [Compound 60], for which the half-inhibitory concentration (IC50) was less than 8 nM.

The compound `CO[C@H](CN[C@H]1CC[C@H](Nc2cc(-c3cc(NCC4CCOCC4)cnc3Cl)c(Cl)cn2)CC1)C(F)(F)F` [Compound 72, 2,5′-dichloro-N5-((tetrahydro-2H-pyran-4-yl)methyl)-N2′-(trans-4-((R)-3,3,3-trifluoro-2-methoxypropylamino)cyclohexyl)-3,4′-bipyridine-2′,5-diamine] registered an IC50 of 7 nM.

As for `N[C@H]1CC[C@H](Nc2cc(-c3cncc(NCc4cc(F)cc(F)c4)c3)c(Cl)cn2)CC1` [Compound 64], the IC50 was less than 8 nM. Compound `CN(C)CC(C)(C)CNc1cc(-c2cncc(NCc3cccc(F)c3)c2)c(Cl)cn1` [Compound 13] registered an IC50 of 130 nM. The same measure for `CN1CCC(CNc2cc(-c3cncc(NCC4CCOCC4)c3)c(Cl)cn2)CC1` [Compound 28]: 1970 nM. The value for `N[C@H]1CC[C@H](Nc2cc(-c3cncc(NCC4CCCOC4)c3)c(Cl)cn2)CC1` (some centres unmarked) [Compound 29] was 16 nM; that for `O[C@H]1CC[C@@H](Nc2cc(-c3cc(NCC4CCOCC4)cnc3Cl)c(Cl)cn2)CC1` [Compound 17] was 25 nM.

`CN(C)[C@H]1CC[C@H](Nc2cc(-c3cncc(NCc4cccc(F)c4)c3)c(Cl)cn2)CC1` [Compound 31, 5′-chloro-N2′-(trans-4-(dimethylamino)cyclohexyl)-N5-(3-fluorobenzyl)-3,4′-bipyridine-2′,5-diamine] yielded a 50% inhibitory concentration (IC50) of less than 8 nM. The same measure for `N[C@H]1CC[C@H](Nc2cc(-c3cncc(NCc4ccc(F)c(F)c4)c3)c(Cl)cn2)CC1` [Compound 35]: less than 8 nM; for `N[C@H]1CC[C@H](Nc2cc(-c3cnc(N4CCOCC4)c(NCC4CCOCC4)c3)c(Cl)cn2)CC1` [Compound 26, N2′-(trans-4-aminocyclohexyl)-5′-chloro-6-morpholino-N5-((tetrahydro-2H-pyran-4-yl)methyl)-3,4′-bipyridine-2′,5-diamine]: 1960 nM; for `OCCNc1cc(-c2cncc(NCc3cccc(F)c3)c2)c(Cl)cn1` [Compound 30]: less than 8 nM. The same measure for `N[C@H]1CC[C@H](Nc2cc(-c3cc(NCC4CCOCC4)cnc3Cl)c(Cl)cn2)CC1` [Compound 79]: less than 8 nM.

`COc1cccc(CNc2cncc(-c3cc(N[C@H]4CC[C@H](N)CC4)ncc3Cl)c2)c1` [Compound 15] came in with a half-inhibitory concentration (IC50) of 8 nM. The same measure for `Clc1cnc(N[C@H]2CC[C@H](N3CCCC3)CC2)cc1-c1cc(NCC2CCOCC2)cnc1Cl` [Compound 76, 2,5′-dichloro-N2′-(trans-4-(pyrrolidin-1-yl)cyclohexyl)-N5-((tetrahydro-2H-pyran-4-yl)methyl)-3,4′-bipyridine-2′,5-diamine]: 35 nM; for `NC[C@H]1CC[C@H](Nc2cc(-c3cncc(OCc4cccc(F)c4)c3)c(Cl)cn2)CC1` [Compound 89]: less than 1 nM; for `Clc1cnc(N[C@H]2CC[C@H](NC[C@H]3CCCO3)CC2)cc1-c1cc(NCC2CCOCC2)cnc1Cl` [Compound 25, 2,5′-dichloro-N5-((tetrahydro-2H-pyran-4-yl)methyl)-N2′-(trans-4-(((R)-tetrahydrofuran-2-yl)methylamino)cyclohexyl)-3,4′-bipyridine-2′,5-diamine]: less than 8 nM. The same measure for `N[C@H]1CC[C@H](Nc2cc(-c3cncc(NCc4cccnc4)c3)c(Cl)cn2)CC1` [Compound 22]: 9 nM; for `O[C@H]1CC[C@H](Nc2cc(-c3cnc(N4CCOCC4)c(NCC4CCOCC4)c3)c(Cl)cn2)CC1` [Compound 46]: 1830 nM; for `O[C@H]1CC[C@H](Nc2cc(-c3cnc(F)c(NCC4CCOCC4)c3)c(Cl)cn2)CC1` [Compound 54]: less than 8 nM. Turning to `NCCCCNc1cc(-c2cncc(NCc3cccc(F)c3)c2)c(Cl)cn1` [Compound 61], the IC50 was less than 8 nM. The same measure for `C[C@H](CO)Nc1cc(-c2cncc(NCC3CCOCC3)c2)c(Cl)cn1` [Compound 41]: 325 nM; for `CN(C)CCCCNc1cc(-c2cncc(NCc3cccc(F)c3)c2)c(Cl)cn1` [Compound 38]: 21 nM; for `N[C@H]1CC[C@H](Nc2cc(-c3cnc(N4CCOCC4)c(NCc4cccc(F)c4)c3)c(Cl)cn2)CC1` [Compound 45]: 610 nM. The value for `CN(Cc1cccc(F)c1)c1cncc(-c2cc(N[C@H]3CC[C@H](N)CC3)ncc2Cl)c1` [Compound 32] was 16 nM; that for `O[C@H]1CCCC[C@@H]1N[C@H]1CC[C@H](Nc2cc(-c3cc(NCC4CCOCC4)cnc3Cl)c(Cl)cn2)CC1` [Compound 90] was 2.8 nM. The value for `COCCN[C@H]1CC[C@H](Nc2cc(-c3cnc(Cl)c(NCC4CCOCC4)c3)c(Cl)cn2)CC1` [Compound 78, 5′,6-dichloro-N2′-(trans-4-(2-methoxyethylamino)cyclohexyl)-N5-((tetrahydro-2H-pyran-4-yl)methyl)-3,4′-bipyridine-2′,5-diamine] was less than 8 nM; that for `Fc1cccc(CNc2cncc(-c3cc(NCC[C@H]4CCCNC4)ncc3Cl)c2)c1` [Compound 49] was less than 8 nM; that for `CN1CCC(CNc2cc(-c3cncc(NCc4cccc(F)c4)c3)c(Cl)cn2)CC1` [Compound 69] was less than 8 nM.

Compound `OCCNc1cc(-c2cncc(NCC3CCOCC3)c2)c(Cl)cn1` [Compound 68] gave an IC50 of 820 nM.

Take `NCC(O)CNc1cc(-c2cncc(NCc3cccc(F)c3)c2)c(Cl)cn1` (centres unmarked) [Compound 50]: the IC50 was 10 nM. Regarding `N[C@H]1CC[C@H](Nc2cc(-c3cnc(Cl)c(NCC4CCOCC4)c3)c(Cl)cn2)CC1` [Compound 77, N2′-(trans-4-aminocyclohexyl)-5′,6-dichloro-N5-((tetrahydro-2H-pyran-4-yl)methyl)-3,4′-bipyridine-2′,5-diamine], the IC50 was less than 8 nM. Compound `N[C@H]1CC[C@H](Nc2cc(-c3cncc(OCc4cccc(F)c4)c3)c(Cl)cn2)CC1` [Compound 88] displayed an IC50 of less than 1 nM. The compound `N[C@H]1CC[C@@H](Nc2cc(-c3cncc(NCc4cccc(F)c4)c3)c(Cl)cn2)CC1` [Compound 21] showed a half-maximal inhibitory concentration (IC50) of 11 nM.

With `N[C@H]1CC[C@H](Nc2cc(-c3cncc(NCc4ccncc4)c3)c(Cl)cn2)CC1` [Compound 71], the half-inhibitory concentration (IC50) was less than 8 nM. The value for `N[C@H]1CC[C@H](Nc2cc(-c3cncc(NCc4ccc(F)cc4)c3)c(Cl)cn2)CC1` [Compound 33] was less than 8 nM; that for `O[C@H]1CC[C@H](Nc2cc(-c3cnc(Cl)c(NCC4CCOCC4)c3)c(Cl)cn2)CC1` [Compound 86] was less than 8 nM.

`Fc1cccc(CNc2cncc(-c3cc(NC4CC4)ncc3Cl)c2)c1` [Compound 47]: the half-maximal inhibitory concentration (IC50) was less than 8 nM. The value for `Fc1cccc(CNc2cncc(-c3cc(N[C@H]4CC[C@H](N5CCCC5)CC4)ncc3Cl)c2)c1` [Compound 84] was less than 8 nM.

As to `OCC(CO)Nc1cc(-c2cncc(NCc3cccc(F)c3)c2)c(Cl)cn1` [Compound 59], the IC50 is 130 nM. The value for `N[C@H]1CC[C@H](Nc2cc(-c3cncc(NCc4cccc(F)c4)c3)c(Cl)cn2)CC1` [Compound 24, N2′-(trans-4-aminocyclohexyl)-5′-chloro-N5-(3-fluorobenzyl)-3,4′-bipyridine-2′,5-diamine] was less than 8 nM. Turning to `N[C@H]1CC[C@H](Nc2cc(-c3cnc(O)c(NCC4CCOCC4)c3)c(Cl)cn2)CC1` [Compound 87, 2′-(trans-4-aminocyclohexylamino)-5′-chloro-5-((tetrahydro-2H-pyran-4-yl)methyl)amino-3,4′-bipyridin-6-ol], the concentration for half-maximal inhibition (IC50) came out at 420 nM. Compound `OCCCNc1cc(-c2cncc(NCC3CCOCC3)c2)c(Cl)cn1` [Compound 57] registered a half-inhibitory concentration (IC50) of 199 nM. The value for `Clc1cnc(NC2CC2)cc1-c1cncc(NCC2CCOCC2)c1` [Compound 27] was 57 nM. Compound `Fc1cccc(CNc2cncc(-c3cc(NC4CCCC4)ncc3Cl)c2)c1` [Compound 48] returned a 50% inhibitory concentration (IC50) of less than 8 nM.

The compound `O[C@H]1CC[C@H](Nc2cc(-c3cncc(NCc4cccc(F)c4)c3)c(Cl)cn2)CC1` [Compound 62] showed a half-maximal inhibitory concentration (IC50) of less than 8 nM. The value for `N[C@H]1CC[C@H](Nc2cc(-c3cncc(NCC4CCOCC4)c3)c(Cl)cn2)CC1` [Compound 63, N2′-(trans-4-aminocyclohexyl)-5′-chloro-N5-((tetrahydro-2H-pyran-4-yl)methyl)-3,4′-bipyridine-2′,5-diamine] was 18 nM; that for `N[C@H]1CC[C@H](Nc2cc(-c3cncc(NCc4cc(F)ccc4F)c3)c(Cl)cn2)CC1` [Compound 43] was less than 8 nM.
